Data reported in patent US20100021918A1, “METHOD FOR ASSAYING ACTION OF ANTITUMOR AGENT USING SPLICING DEFECTS AS INDEX” (Eisai R&D Management Co., Ltd., priority 2007, published 2010).

System: peripheral blood mononuclear cells (PBMC)
Assay: Microarray analysis (3), dose-dependent intron expression in PBMC at 3, 10, 30 nM, Table 5
Format: cell-based, human
Method: PBMC was suspended in RPMI1640 medium (containing 10% FBS, penicillin, and streptomycin) to 5×10^6 cells/ml and 1 ml of the suspension was plated per well of a 24-well plate. Immediately, 111 μl of 10 times-concentrated (8E,12E,14E)-7-((4-cycloheptylpiperazin-1-yl)carbonyl)oxy-3,6,16,21-tetrahydroxy-6,10,12,16,20-pentamethyl-18,19-epoxytricosa-8,12,14-trien-11-olide was added to the well (six wells per each concentration tested). The cells were then cultured in an incubator with 5% carbon dioxide gas at 37° C. Three hours later, the supernatant was collected and centrifuged at 1500 rpm for five minutes. TRI reagent (SIGMA) (1 ml) was added to each well of the plate from which the supernatant was removed to harvest the cells, which was added to the centrifuged pellet to dissolve. RNA was purified in accordance with the protocol of TRI reagent. RNA was further purified using RNeasy (QIAGEN) and, in accordance with the protocol, DNaseI was added to the samples during the procedure. Absorbance at 260 nm was measured to quantify an amount of RNA.
Ribosomal RNA was removed from 1 μg of each total RNA of control cells (n=3) and cells with the treatment (n=3) using RiboMinus Human/Mouse Transcriptome Isolation Kit (Invitrogen). Single stranded cDNA synthesis, double stranded cDNA synthesis, cRNA synthesis, second single stranded cDNA synthesis, cDNA fragmentation, and cDNA labeling in order were carried out for total RNA from which ribosomal RNA was removed, using GeneChip Whole Transcript Sense Target Labeling and Control Reagents (Affymetrix) to make a cDNA probe. Subsequently, the cDNA probe was used for hybridization with Human Exon 1.0 ST Array (Affymetrix). The array was washed and stained, and luminescence intensity was measured by a scanner.
The expression level of the probe set and the gene was quantified by using Expression Console Ver. 1.0 (Affymetrix) with Summarization Method and Normalization Method being set to “Median polish as used in RMA” and “None”, respectively. The expression level of the probe was normalized with that of the gene.
Probe sets showing that the normalized change in the level expression of the probe set in the group with the treatment at 30 nM was more than 5 times; the expression level of the probe set and the gene in the group with the treatment at 30 nM was more than 100; and probe set annotation was “extended, full, free”, were picked out. Regression analysis was performed with the probe sets extracted for the control group, the group with the treatment at 3 nM, the group with the treatment at 10 nM, and the group with the treatment at 30 nM to determine a p and q value for the slope of regression formula. A gene containing the probe sets with the q value of less than 5% was determined as a candidate gene with increased expression level of the intron regions (Table 5).
In Table 5, for the gene evaluated, gene name (Gene Name), abbreviated name (Gene Symbol), accession number (Accession), alias name (Synonym), transcription cluster number in Human Exon 1.0 ST Array (Human Exon 1.0 ST Array Transcription Cluster ID), chromosome number (Chromosome), type of strand (Strand), start region (Start), stop region (Stop), and change in expression level per 1 nM (Fold Change/nM) were respectively shown.

CCC(O)C(C)C1OC1CC(C)(O)/C=C/C=C(\C)C1OC(=O)CC(O)CCC(C)(O)C(OC(=O)N2CCN(C3CCCCCC3)CC2)/C=C/C1C (stereo not shown) [E7107, (8E,12E,14E)-7-((4-cycloheptylpiperazin-1-yl)carbonyl)oxy-3,6,16,21-tetrahydroxy-6,10,12,16,20-pentamethyl-18,19-epoxytricosa-8,12,14-trien-11-olide]
Fold Change/nM (gene ABCC1, intron expression, 3, 10, 30 nM): 1.05 nM⁻¹
Fold Change/nM (gene ADAR introns, regression over control, 3, 10, 30 nM): 1.05 nM⁻¹
Fold Change/nM (gene AMPD3 // PPARA // TRMU // GTSE1, intron expression, 3, 10, 30 nM): 1.05 nM⁻¹
Fold Change/nM (gene ANKH introns, regression over control, 3, 10, 30 nM): 1.05 nM⁻¹
Fold Change/nM (gene ARF1 introns, regression over control, 3, 10, 30 nM): 1.05 nM⁻¹
Fold Change/nM (gene ARHGDIB introns, regression over control, 3, 10, 30 nM): 1.05 nM⁻¹
Fold Change/nM (gene ATP8A1 // PCLKC, intron expression, 3, 10, 30 nM): 1.05 nM⁻¹
Fold Change/nM (gene AUTS2, intron expression, 3, 10, 30 nM): 1.05 nM⁻¹
Fold Change/nM (gene BAT2D1, intron expression, 3, 10, 30 nM): 1.05 nM⁻¹
Fold Change/nM (gene BCL9L, intron expression, 3, 10, 30 nM): 1.05 nM⁻¹
Fold Change/nM (gene C3orf63, intron expression, 3, 10, 30 nM): 1.05 nM⁻¹
Fold Change/nM (gene C13orf18, intron expression, 3, 10, 30 nM): 1.05 nM⁻¹
Fold Change/nM (gene C22orf28, intron expression, 3, 10, 30 nM): 1.05 nM⁻¹
Fold Change/nM (gene CALR, intron expression, 3, 10, 30 nM): 1.05 nM⁻¹
Fold Change/nM (gene CAND1 introns, regression over control, 3, 10, 30 nM): 1.05 nM⁻¹
Fold Change/nM (gene CCND2 introns, regression over control, 3, 10, 30 nM): 1.05 nM⁻¹
Fold Change/nM (gene CDC2L5, intron expression, 3, 10, 30 nM): 1.05 nM⁻¹
Fold Change/nM (gene CEP170 // CEP170L, intron expression, 3, 10, 30 nM): 1.05 nM⁻¹
Fold Change/nM (gene CHST11, intron expression, 3, 10, 30 nM): 1.05 nM⁻¹
Fold Change/nM (gene DDEF1, intron expression, 3, 10, 30 nM): 1.05 nM⁻¹
Fold Change/nM (gene DDX3Y introns, regression over control, 3, 10, 30 nM): 1.05 nM⁻¹
Fold Change/nM (gene DDX18 // WNT8B, intron expression, 3, 10, 30 nM): 1.05 nM⁻¹
Fold Change/nM (gene DENND4A introns, regression over control, 3, 10, 30 nM): 1.05 nM⁻¹
Fold Change/nM (gene DPF2, intron expression, 3, 10, 30 nM): 1.05 nM⁻¹
Fold Change/nM (gene DRAM, intron expression, 3, 10, 30 nM): 1.05 nM⁻¹
Fold Change/nM (gene DUSP16, intron expression, 3, 10, 30 nM): 1.05 nM⁻¹
Fold Change/nM (gene EDD1, intron expression, 3, 10, 30 nM): 1.05 nM⁻¹
Fold Change/nM (gene EIF3S10, intron expression, 3, 10, 30 nM): 1.05 nM⁻¹
Fold Change/nM (gene EIF4A1 // SENP3, intron expression, 3, 10, 30 nM): 1.05 nM⁻¹
Fold Change/nM (gene FBXO11, intron expression, 3, 10, 30 nM): 1.05 nM⁻¹
Fold Change/nM (gene FNTA, intron expression, 3, 10, 30 nM): 1.05 nM⁻¹
Fold Change/nM (gene FOXK2, intron expression, 3, 10, 30 nM): 1.05 nM⁻¹
Fold Change/nM (gene FOXO3A, intron expression, 3, 10, 30 nM): 1.05 nM⁻¹
Fold Change/nM (gene GAK, intron expression, 3, 10, 30 nM): 1.05 nM⁻¹
Fold Change/nM (gene GDI1 introns, regression over control, 3, 10, 30 nM): 1.05 nM⁻¹
Fold Change/nM (gene GNA12, intron expression, 3, 10, 30 nM): 1.05 nM⁻¹
Fold Change/nM (gene GP5 // ZNF394, intron expression, 3, 10, 30 nM): 1.05 nM⁻¹
Fold Change/nM (gene GTF3C4 introns, regression over control, 3, 10, 30 nM): 1.05 nM⁻¹
Fold Change/nM (gene GTPBP4, intron expression, 3, 10, 30 nM): 1.05 nM⁻¹
Fold Change/nM (gene IDI1 introns, regression over control, 3, 10, 30 nM): 1.05 nM⁻¹
Fold Change/nM (gene IFNGR1 introns, regression over control, 3, 10, 30 nM): 1.05 nM⁻¹
Fold Change/nM (gene KIAA0226 introns, regression over control, 3, 10, 30 nM): 1.05 nM⁻¹
Fold Change/nM (gene KLF9 introns, regression over control, 3, 10, 30 nM): 1.05 nM⁻¹
Fold Change/nM (gene LDLR introns, regression over control, 3, 10, 30 nM): 1.05 nM⁻¹
Fold Change/nM (gene MAPK6, intron expression, 3, 10, 30 nM): 1.05 nM⁻¹
Fold Change/nM (gene MKI67IP introns, regression over control, 3, 10, 30 nM): 1.05 nM⁻¹
Fold Change/nM (gene MLL3 // ADAMTS2 // LRRK1 // BAGE3 introns, regression over control, 3, 10, 30 nM): 1.05 nM⁻¹
Fold Change/nM (gene MLLT3, intron expression, 3, 10, 30 nM): 1.05 nM⁻¹
Fold Change/nM (gene MTMR6 introns, regression over control, 3, 10, 30 nM): 1.05 nM⁻¹
Fold Change/nM (gene MYD88, intron expression, 3, 10, 30 nM): 1.05 nM⁻¹
Fold Change/nM (gene NFKB2, intron expression, 3, 10, 30 nM): 1.05 nM⁻¹
Fold Change/nM (gene NIPBL // NRBP1 introns, regression over control, 3, 10, 30 nM): 1.05 nM⁻¹
Fold Change/nM (gene NPAT, intron expression, 3, 10, 30 nM): 1.05 nM⁻¹
Fold Change/nM (gene NR3C1, intron expression, 3, 10, 30 nM): 1.05 nM⁻¹
Fold Change/nM (gene PAK2, intron expression, 3, 10, 30 nM): 1.05 nM⁻¹
Fold Change/nM (gene PJA2 introns, regression over control, 3, 10, 30 nM): 1.05 nM⁻¹
Fold Change/nM (gene PLEK, intron expression, 3, 10, 30 nM): 1.05 nM⁻¹
Fold Change/nM (gene PLEKHM1, intron expression, 3, 10, 30 nM): 1.05 nM⁻¹
Fold Change/nM (gene POLR3E introns, regression over control, 3, 10, 30 nM): 1.05 nM⁻¹
Fold Change/nM (gene PPP1CB, intron expression, 3, 10, 30 nM): 1.05 nM⁻¹
Fold Change/nM (gene PRKAR1A, intron expression, 3, 10, 30 nM): 1.05 nM⁻¹
Fold Change/nM (gene PRPF4B, intron expression, 3, 10, 30 nM): 1.05 nM⁻¹
Fold Change/nM (gene PSEN1, intron expression, 3, 10, 30 nM): 1.05 nM⁻¹
Fold Change/nM (gene PSMD11, intron expression, 3, 10, 30 nM): 1.05 nM⁻¹
Fold Change/nM (gene RANGAP1, intron expression, 3, 10, 30 nM): 1.05 nM⁻¹
Fold Change/nM (gene RARA, intron expression, 3, 10, 30 nM): 1.05 nM⁻¹
Fold Change/nM (gene RBM23 // C9orf102, intron expression, 3, 10, 30 nM): 1.05 nM⁻¹
Fold Change/nM (gene SETD5, intron expression, 3, 10, 30 nM): 1.05 nM⁻¹
Fold Change/nM (gene SF3B1, intron expression, 3, 10, 30 nM): 1.05 nM⁻¹
Fold Change/nM (gene SF3B2, intron expression, 3, 10, 30 nM): 1.05 nM⁻¹
Fold Change/nM (gene SFPQ, intron expression, 3, 10, 30 nM): 1.05 nM⁻¹
Fold Change/nM (gene SFRS2IP introns, regression over control, 3, 10, 30 nM): 1.05 nM⁻¹
Fold Change/nM (gene SFRS3, intron expression, 3, 10, 30 nM): 1.05 nM⁻¹
Fold Change/nM (gene SLFN11, intron expression, 3, 10, 30 nM): 1.05 nM⁻¹
Fold Change/nM (gene ST8SIA4 introns, regression over control, 3, 10, 30 nM): 1.05 nM⁻¹
Fold Change/nM (gene STX6, intron expression, 3, 10, 30 nM): 1.05 nM⁻¹
Fold Change/nM (gene SUPV3L1 introns, regression over control, 3, 10, 30 nM): 1.05 nM⁻¹
Fold Change/nM (gene THRAP1 introns, regression over control, 3, 10, 30 nM): 1.05 nM⁻¹
Fold Change/nM (gene TLR4, intron expression, 3, 10, 30 nM): 1.05 nM⁻¹
Fold Change/nM (gene TMEM1, intron expression, 3, 10, 30 nM): 1.05 nM⁻¹
Fold Change/nM (gene TMEM2, intron expression, 3, 10, 30 nM): 1.05 nM⁻¹
Fold Change/nM (gene TNFSF8, intron expression, 3, 10, 30 nM): 1.05 nM⁻¹
Fold Change/nM (gene TRAF3 introns, regression over control, 3, 10, 30 nM): 1.05 nM⁻¹
Fold Change/nM (gene UBXD2 introns, regression over control, 3, 10, 30 nM): 1.05 nM⁻¹
Fold Change/nM (gene USP4, intron expression, 3, 10, 30 nM): 1.05 nM⁻¹
Fold Change/nM (gene USP38, intron expression, 3, 10, 30 nM): 1.05 nM⁻¹
Fold Change/nM (gene USP47 introns, regression over control, 3, 10, 30 nM): 1.05 nM⁻¹
Fold Change/nM (gene YME1L1, intron expression, 3, 10, 30 nM): 1.05 nM⁻¹
Fold Change/nM (gene ZNF267, intron expression, 3, 10, 30 nM): 1.05 nM⁻¹
Fold Change/nM (introns of gene ACSL1, regression over control, 3, 10, 30 nM): 1.07 nM⁻¹
Fold Change/nM (introns of gene BASP1, regression over control, 3, 10, 30 nM): 1.07 nM⁻¹
Fold Change/nM (introns of gene CD2, regression over control, 3, 10, 30 nM): 1.07 nM⁻¹
Fold Change/nM (introns of gene EIF2C2, regression over control, 3, 10, 30 nM): 1.07 nM⁻¹
Fold Change/nM (introns of gene GCH1, regression over control, 3, 10, 30 nM): 1.07 nM⁻¹
Fold Change/nM (introns of gene ITGAV, regression over control, 3, 10, 30 nM): 1.08 nM⁻¹
Fold Change/nM (introns of gene NFKB1, regression over control, 3, 10, 30 nM): 1.07 nM⁻¹
Fold Change/nM (introns of gene NUMB, regression over control, 3, 10, 30 nM): 1.07 nM⁻¹
Fold Change/nM (introns of gene PRKCE, regression over control, 3, 10, 30 nM): 1.07 nM⁻¹
Fold Change/nM (introns of gene PSMD3, regression over control, 3, 10, 30 nM): 1.07 nM⁻¹
Fold Change/nM (introns of gene QKI, regression over control, 3, 10, 30 nM): 1.07 nM⁻¹
